According to patent publication US10975035B2, “Bicyclic compounds” (Recurium IP Holdings, LLC, priority 2014, dated 2021):
Structures can show the parent of a compound that is named as a salt.

System: male ICR mice
Test: Formalin paw test
Assay type: in vivo, mouse
Settings: for Early Phase: early/acute phase (0-10 minutes) after formalin; for Late Phase: late/tonic phase (10-35 minutes) after formalin
Protocol: One test compound or the vehicle was administered to each mouse in each test group (8 mice per group). Non-fasted male ICR mice weighing 23±3 g were used. Test compounds were administered at a concentration of 3 mg/kg, 10 mg/kg, 15 mg/kg, 30 mg/kg, 60 mg/kg, 100 mg/kg, 200 mg/kg or 300 mg/kg; morphine was administered at a concentration of 5 mg/kg; and acetaminophen was administered at a concentration of 200 mg/kg. The control group received the vehicle (5% DMSO/40% PEG400/20% HPbCD/Saline). After 30 or 60 minutes, a 2% formalin solution (0.02 mL) was injected into one hind paw (sub-plantar) of each mouse. Responses were measured every 5 minutes after the formalin injection for 35 minutes.
The results in Table A are for oral administration; the results in Table B are for intraperitoneal administration. In Tables A and B, ‘A’ designates <70 licks/sec, ‘B’ designates ≥70 licks/sec and <165 licks/sec, and ‘C’ designates ≥165 licks/sec.

[1] = intraperitoneal administration, 30 mg/kg

| SMILES | Early Phase (oral administration, 200 mg/kg) | Late Phase (oral administration, 200 mg/kg) | Early Phase [1] | Late Phase [1] |
| --- | --- | --- | --- | --- |
| CC(=O)NCC12CC(C(C)(C)C)(C1)C2 [Compound 1, N-((3-(tert-butyl)bicyclo[1.1.1]pentan-1-yl)methyl)acetamide] | A (‘A’ designates <70 licks/sec) | A (‘A’ designates <70 licks/sec) |  |  |
| CC(C)(C)C12CC(CN)(C1)C2 [Compound 1c, (3-(tert-butyl)bicyclo[1.1.1]pentan-1-yl)methanamine] |  |  | B (‘B’ designates ≥70 licks/sec and <165 licks/sec) | B (‘B’ designates ≥70 licks/sec and <165 licks/sec) |
| CC(=O)NCC12CC(C(F)(F)F)(C1)C2 [Compound 2] | B (‘B’ designates ≥70 licks/sec and <165 licks/sec) | B (‘B’ designates ≥70 licks/sec and <165 licks/sec) |  |  |
| CC(=O)NC12CC(C(F)(F)F)(C1)C2 [Compound 4] | A (‘A’ designates <70 licks/sec) | C (‘C’ designates ≥165 licks/sec) |  |  |
| CC(=O)NC12CC(C)(C1)C2 [Compound 6] | B (‘B’ designates ≥70 licks/sec and <165 licks/sec) | B (‘B’ designates ≥70 licks/sec and <165 licks/sec) |  |  |
| CC(=O)NC12CC(C(C)C)(C1)C2 [Compound 8] | A (‘A’ designates <70 licks/sec) | A (‘A’ designates <70 licks/sec) |  |  |
| O=C(NC12CC(C1)C2)C(F)(F)F [Compound 9] | B (‘B’ designates ≥70 licks/sec and <165 licks/sec) | C (‘C’ designates ≥165 licks/sec) |  |  |
| CC(C)(C)C(=O)NC12CC(C(C)(C)C)(C1)C2 [Compound 11] | A (‘A’ designates <70 licks/sec) | A (‘A’ designates <70 licks/sec) |  |  |
| CC(C)(C)C(=O)NC12CC(C1)C2 [Compound 12] | B (‘B’ designates ≥70 licks/sec and <165 licks/sec) | C (‘C’ designates ≥165 licks/sec) |  |  |
| CC(=O)N(C)C12CC(C(C)(C)C)(C1)C2 [Compound 14] | A (‘A’ designates <70 licks/sec) | A (‘A’ designates <70 licks/sec) |  |  |
| CC(=O)NC12CC(C(C)(C)O)(C1)C2 [Compound 18] |  |  | B (‘B’ designates ≥70 licks/sec and <165 licks/sec) | C (‘C’ designates ≥165 licks/sec) |
| NCCC12CC(C(F)(F)F)(C1)C2 [Compound 21, 2-(3-(trifluoromethyl)bicyclo[1.1.1]pentan-1-yl)ethanamine, hydrochloride] |  |  | B (‘B’ designates ≥70 licks/sec and <165 licks/sec) | B (‘B’ designates ≥70 licks/sec and <165 licks/sec) |
